Experimental data reported in patent publication US20120220580A1, “PREPARATION OF CAROTENOID DERIVATIVES AND THEIR APPLICATIONS” (BEIJING GINGKO GROUP BIOLOGICAL TECHNOLOGY CO., LTD., priority 2009, published 2012).
Where a name gives a salt, the structure may show the parent alone.

How the values were obtained:
nutritional obesity rats [1] = assay: Weight of fat pads around testicles of nutritional obesity rats (Example 18); assay type: in vivo, rat; settings: after 30 d administration, x ± s; for Body weight(g) (After-experiment): Table 2
Experimental: (§1) Fucoxanthin group and test animal groups were administrated with same doses of the drugs. The basal feed control group continued to be fed with basal feed, other groups with high-fat feed. The basal feed- and model control groups were intragastric administrated with distilled water, the other, drug-administrated groups with respective doses of drug, the administration were carried out uninterruptedly for 30 d. Each group of the animals were bred in different hutches, the room temperature was controlled within (22±2)° C., using natural illumination, the animals took food and drank freely. The body weights of the animals were measured one time each week, feed-intakes of the rats were also observed and recorded. After 30 days the rats were weighed. Statistical analysis: Variance analysis of the data collected in this experiment was implemented by SAS software package, Dunnett's t-test was used for inter-group comparative analysis, p<0.05 was used as the criterion of statistical significance. Experimental procedures were the same as in Example 17. […] Statistical analysis was the same as in Example 16.

nutritional obesity rats [2] = assay: Body weight of nutritional obesity rats on high-fat feed, intragastric drug for 30 d (Example 17); assay type: in vivo, rat; settings: x ± s; for Body weight(g) (After-experiment) / Body weight(g) increased: Table 1, high-fat feed; for Body weight(g) (After-experiment): after 30 d intragastric administration; for Body weight(g) increased: increase over 30 d of administration; as to Body weight(g) (After-experiment): test concentration or dose not given here; as to Body weight(g) increased: test concentration or dose not given here
Experimental: Fucoxanthin group and test animal groups were administrated with same doses of the drugs. The basal feed control group continued to be fed with basal feed, other groups with high-fat feed. The basal feed- and model control groups were intragastric administrated with distilled water, the other, drug-administrated groups with respective doses of drug, the administration were carried out uninterruptedly for 30 d. Each group of the animals were bred in different hutches, the room temperature was controlled within (22±2)° C., using natural illumination, the animals took food and drank freely. The body weights of the animals were measured one time each week, feed-intakes of the rats were also observed and recorded. After 30 days the rats were weighed. Statistical analysis: Variance analysis of the data collected in this experiment was implemented by SAS software package, Dunnett's t-test was used for inter-group comparative analysis, p<0.05 was used as the criterion of statistical significance.

nutritional obesity rats [3] = assay: Weight of abdomen fat of nutritional obesity rats (Example 20); assay type: in vivo, rat; settings: after 30 d administration, x ± s; for Body weight(g) (After-experiment): Table 4
Experimental: as §1

[4] = tested on: nutritional obesity model rats; assay: Weight of fat pads around kidneys of nutritional obesity model rats (Example 19); assay type: in vivo, rat; settings: after 30 d administration, x ± s; for Body weight(g) (After-experiment): Table 3
Experimental: as §1

[5] = compared with fucoxanthin; cited from earlier work
lab mice = settings: fucoxanthin as an additive in condensed food, experimental animals; cited from earlier work; also: test concentration or dose not given here

| Compound | Body weight(g) (After-experiment) (nutritional obesity rats [1]) | Weight fat pads around testicles(g) (nutritional obesity rats [1]) | Weight fat pads around testicles/bw × 100 (nutritional obesity rats [1]) | Body weight(g) (After-experiment) (nutritional obesity rats [2]) | Body weight(g) increased (nutritional obesity rats [2]) | Body weight(g) (After-experiment) (nutritional obesity rats [3]) | Weight abdomen fat/bw × 100 (nutritional obesity rats [3]) | Weight. abdomenfat (g) (nutritional obesity rats [3]) | Body weight(g) (After-experiment) [4] | Weight fat pads around kidneys(g) [4] | Weight fat pads around kidneys/bw × 100 [4] | other results |
| --- | --- | --- | --- | --- | --- | --- | --- | --- | --- | --- | --- | --- |
| CCCCC/C=C\C/C=C\CCCCCCCC(=O)OC1CC(C)(C)C2(CC(=O)/C(C)=C/C=C/C(C)=C/C=C/C=C(C)/C=C/C=C(\C)C=C=C3C(C)(C)CC(OC(C)=O)C[C@@]3(C)O)OC2(C)C1 (stereo partly drawn) [compound 15, fucoxanthin linoleate] | 520.01 ± 16.88 | 6.34 ± 0.55ΔΔ g | 1.22 ± 0.11ΔΔ | – | – | – | – | – | – | – | – | – |
| CC(=O)OC1CC(C)(C)C(=C=C/C=C/C=C/C(C)=C/C=C/C=C(C)/C=C/C=C(\C)C(=O)CC23OC2(C)CC(OC(=O)CCC(=O)OC[C@H](O)[C@H]2OC(=O)C(O)=C2O)CC3(C)C)[C@@](C)(O)C1 (stereo partly drawn) [compound 4, fucoxanthin succinate-4-vitamin C ester] | 514.00 ± 30.22 | 4.00 ± 0.14ΔΔ g | 0.70 ± 0.21ΔΔ | 514.00 ± 30.22ΔΔ g | 27.41 ± 1.21ΔΔ g | 514.00 ± 30.22 | 0.80 ± 0.11ΔΔ | 4.11 ± 0.14ΔΔ g | – | – | – | – |
| CC(=O)OC1CC(C)(C)C(=C=C/C(C)=C/C=C/C(C)=C/C=C/C=C(C)/C=C/C=C(\C)C(=O)CC23OC2(C)CC(OC(=O)[C@@H](O)[C@H](O)C(=O)O)CC3(C)C)[C@](C)(O)C1 (stereo partly drawn) [compound 11, fucoxanthin tartrate] | – | – | – | 515.00 ± 18.90ΔΔ g | 29.25 ± 1.23ΔΔ g | 515.00 ± 18.90 | 1.40 ± 0.13ΔΔ | 7.21 ± 0.23ΔΔ g | – | – | – | – |
| CC(=O)OC1CC(C)(C)C(=C=C/C(C)=C/C=C/C(C)=C/C=C/C=C(C)/C=C/C=C(\C)C(=O)CC23OC2(C)CC(OC(=O)/C=C(/CC(=O)O)C(=O)O)CC3(C)C)[C@](C)(O)C1 (stereo partly drawn) [compound 8, fucoxanthin aconitate] | – | – | – | – | – | – | – | – | 518.18 ± 15.21 | 4.40 ± 0.34ΔΔ g | 0.85 ± 0.12ΔΔ | – |
| CC(=O)OC1CC(C)(C)C(=C=C/C(C)=C/C=C/C(C)=C/C=C/C=C(C)/C=C/C=C(\C)C(=O)CC23OC2(C)CC(OC(=O)CCC(=O)O)CC3(C)C)[C@@](C)(O)C1 (stereo partly drawn) [compound 3, fucoxanthin succinate sodium salt] | – | – | – | – | – | – | – | – | – | – | – | Body weight(g) (After-experiment) (nutritional obesity rats [1]; succinate sodium salt): 513.1 ± 19.13 g; Weight fat pads around testicles(g) (nutritional obesity rats [1]; succinate sodium salt): 7.00 ± 0.13ΔΔ g; Weight fat pads around testicles/bw × 100 (nutritional obesity rats [1]; succinate sodium salt): 1.20 ± 0.10ΔΔ |
| CC(=O)OC1CC(C)(C)C(=C=C/C(C)=C/C=C/C(C)=C/C=C/C=C(C)/C=C/C=C(\C)C(=O)CC23OC2(C)CC(OC(=O)CNC(=O)C(CS)NC(=O)CCC(N)C(=O)O)CC3(C)C)[C@](C)(O)C1 (stereo partly drawn) [compound 10, fucoxanthin glutathione ester] | – | – | – | – | – | 517.00 ± 11.23 | 1.50 ± 0.14ΔΔ | 7.75 ± 0.20ΔΔ g | 522.08 ± 18.11 | 4.00 ± 0.40ΔΔ g | 0.75 ± 0.11ΔΔ | – |
| fucoxanthin citrate sodium salt [compound 6] | – | – | – | 507.00 ± 20.11ΔΔ g | 20.32 ± 1.21ΔΔ g | – | – | – | – | – | – | Body weight(g) (before-experiment) (nutritional obesity rats [2]; SD male rats, after 1 month high-fat feed, before drug administration (baseline), 10 rats per group): 485.89 ± 18.99 g |
| CC(=O)OC1CC(C)(C)C(=C=C/C(C)=C/C=C/C(C)=C/C=C/C=C(C)/C=C/C=C(\C)C(=O)CC23OC2(C)CC(OC(=O)CC(O)(CC(=O)OC[C@H](O)[C@H]2OC(=O)C(O)=C2O)C(=O)O)CC3(C)C)[C@](C)(O)C1 (stereo partly drawn) [compound 7, fucoxanthincitrate5-vitamin C ester] | – | – | – | 506.00 ± 19.07ΔΔ g | 18.21 ± 1.12ΔΔ g | – | – | – | – | – | – | – |
| C\C(C=C=C1C(C)(C)CC(O)C[C@@]1(C)O)=C/C=C/C(C)=C/C=C/C=C(C)/C=C/C=C(\C)C(=O)CC12OC1(C)CC(O)CC2(C)C (stereo partly drawn) [fucoxanthol, reference compound] | 527.00 ± 18.89 | 7.00 ± 0.67ΔΔ g | 1.25 ± 0.13ΔΔ | 527.00 ± 18.89ΔΔ g | 39.39 ± 18.11ΔΔ g | 527.00 ± 18.89 | 1.60 ± 0.11ΔΔ | 7.91 ± 0.11ΔΔ g | 527.00 ± 18.89 | 7.0 ± 0.58ΔΔ g | 1.20 ± 0.10ΔΔ | weight-reducing activity [5]: much stronger than fucoxanthin |
| C\C(C=C=C1C(C)(C)CC(OC(=O)N2CCOCC2)C[C@@]1(C)O)=C/C=C/C(C)=C/C=C/C=C(C)/C=C/C=C(\C)C(=O)CC12OC1(C)CC(OC(=O)N1CCOCC1)CC2(C)C (stereo partly drawn) [compound 12, fucoxanthol bi-morpholino carbamate] | – | – | – | 500.01 ± 20.10ΔΔ g | 12.12 ± 1.25ΔΔ g | – | – | – | – | – | – | – |
| fucoxanthin succinate 4-vitamin Cester sodium salt [compound 5] | – | – | – | – | – | 504.01 ± 18.23 | 0.71 ± 0.10ΔΔ | 3.58 ± 0.21ΔΔ g | 513.15 ± 11.00 | 7.00 ± 0.32ΔΔ g | 1.12 ± 0.10ΔΔ | – |
| CC(=O)OC1CC(C)(C)C(=C=C/C(C)=C/C=C/C(C)=C/C=C/C=C(C)/C=C/C=C(\C)C(=O)CC23OC2(C)CC(OC(=O)CCC(=O)Oc2ccc(/C=C/c4cc(O)cc(O)c4)cc2)CC3(C)C)[C@@](C)(O)C1 (stereo partly drawn) [compound 14, fucoxanthin resveratrol succinate] | 514.00 ± 22.22 | 5.00 ± 0.12ΔΔ g | 0.90 ± 0.12ΔΔ | 514.00 ± 22.22ΔΔ g | 28.52 ± 1.21ΔΔ g | – | – | – | – | – | – | – |
| CC(=O)OC1CC(C)(C)C(=C=C/C(C)=C/C=C/C(C)=C/C=C/C=C(C)/C=C/C=C(\C)C(=O)CC23OC2(C)CC(OC(=O)CC(O)(CC(=O)O)C(=O)O)CC3(C)C)[C@](C)(O)C1 (stereo partly drawn) [compound 1, fucoxanthin citrate] | – | – | – | 515.00 ± 29.21ΔΔ g | 28.50 ± 1.15ΔΔ g | – | – | – | – | – | – | – |
| CC(=O)OC1CC(C)(C)C(=C=C/C(C)=C/C=C/C(C)=C/C=C/C=C(C)/C=C/C=C(\C)C(=O)CC23OC2(C)CC(OC(=O)CCC(=O)O)CC3(C)C)[C@@](C)(O)C1 (stereo partly drawn) [compound 2, fucoxanthin succinate] | 512.1 ± 21.00 | 6.00 ± 0.11ΔΔ g | 1.18 ± 0.13ΔΔ | – | – | 516.03 ± 12.15 | 1.31 ± 0.12ΔΔ | 6.76 ± 0.22ΔΔ g | – | – | – | – |
| CC(=O)OC1CC(C)(C)C(=C=C/C(C)=C/C=C/C(C)=C/C=C/C=C(C)/C=C/C=C(\C)C(=O)CC23OC2(C)CC(O)CC3(C)C)[C@](C)(O)C1 (stereo partly drawn) [fucoxanthin, 3′-(Acetyloxy)-6′,7′-didehydro-5,6-epoxy-5,5′,6,6′,7,8-hexahydro-3,5′-dihydroxy-8-oxo-β,β-carotene, reference compound] | 531.00 ± 20.32 | 7.32 ± 0.83Δ g | 1.38 ± 0.11Δ | 531.00 ± 20.32Δ g | 43.68 ± 19.13Δ g | 531.00 ± 20.32 | 1.81 ± 0.13Δ | 9.61 ± 0.12ΔΔ g | 531.00 ± 20.32 | 7.42 ± 0.60Δ g | 1.42 ± 0.12Δ | addiction or other side effects (lab mice): would not induce the addiction of the experimental animals, or had any other side effects |
| CC(=O)OC1CC(C)(C)C(=C=C/C(C)=C/C=C/C(C)=C/C=C/C=C(C)/C=C/C=C(\C)C(=O)CC23OC2(C)CC(OC(=O)CCCN(C)C)CC3(C)C)[C@](C)(O)C1 (stereo partly drawn) [compound 9, fucoxanthin di-methylaminobutyrate] | – | – | – | – | – | – | – | – | 514.13 ± 13.00 | 5.00 ± 0.23ΔΔ g | 0.98 ± 0.11ΔΔ | – |
